From ChEMBL document CHEMBL1158938, “In vitro effects of tremorgenic mycotoxins” (J Nat Prod, 1991)
Active and inactive are the calls of the source. The calls are words filed in the database; no cut-off is given here.

Experiments:
Ileum [1] = experiment: Induction of guinea pig ileum contraction; assay type: functional, tissue-based; conditions: Cavia porcellus
[2] = Tremorgenic activity in ip dosed mouse; assay type: ADME, organism-based; conditions: in vivo
Ileum [3] = experiment: Induction of electrically-stimulated guinea pig ileum contraction at 10 ng/ml relative to control in presence of acetylcholine; assay type: functional, Cavia porcellus
Ileum [4] = experiment: Induction of electrically-stimulated guinea pig ileum contraction at 100 ng/ml relative to control in presence of acetylcholine; assay type: functional, Cavia porcellus
Ileum [5] = experiment: Induction of electrically-stimulated guinea pig ileum contraction at 1 ug/ml relative to control in presence of acetylcholine; assay type: functional, Cavia porcellus
Ileum [6] = experiment: Induction of electrically-stimulated guinea pig ileum twitch contraction at 10 ng/ml relative to control in presence of hyoscine; assay type: functional, Cavia porcellus
Ileum [7] = experiment: Induction of electrically-stimulated guinea pig ileum twitch contraction at 100 ng/ml relative to control in presence of hyoscine; assay type: functional, Cavia porcellus
Ileum [8] = experiment: Induction of electrically-stimulated guinea pig ileum twitch contraction at 1 ug/ml relative to control in presence of hyoscine; assay type: functional, Cavia porcellus
Ileum [9] = experiment: Induction of electrically-stimulated guinea pig ileum twitch contraction at 10 ng/ml; assay type: functional, tissue-based; conditions: Cavia porcellus

With `CC(C)(O)[C@H]1O[C@H]2CC[C@@]3(C)[C@@](O)(CC[C@H]4Cc5c([nH]c6ccccc56)[C@@]43C)C2=CC1=O` [PAXILLINE] as the molecule, how does the Activity (Ileum [1]) read?
Its Activity is “Dose-dependent effect”.

What about the ED50 [2] of the same molecule?
Its ED50 is 25 mg/kg.

And the Activity (Ileum [3])?
The Activity was 121%.

What about the Activity (Ileum [4]) of the same molecule?
Its Activity is 118%.

What about the Activity (Ileum [5]) of the same molecule?
The Activity was 126%.

What about the Activity (Ileum [6]) of the same molecule?
Its Activity is 9%.

And the Activity (Ileum [7])?
The Activity was 11%.

What about the Activity (Ileum [8]) of the same molecule?
The Activity was 2%.

With `COc1ccc2c3c4n(c2c1)[C@H](C=C(C)C)OOC(C)(C)C[C@@H]4N1C(=O)[C@@H]2CCCN2C(=O)[C@]1(O)[C@H]3O` [VERRUCULOGEN] as the molecule, how does the Activity (Ileum [1]) read?
The Activity was “Dose-dependent effect”.

What about the Activity (Ileum [9]) of the same molecule?
The Activity was “Active”.

And the ED50 [2]?
Its ED50 is 0.39 mg/kg.

What about the Activity (Ileum [3]) of the same molecule?
The Activity was 127%.

What about the Activity (Ileum [4]) of the same molecule?
The Activity was 123%.

And the Activity (Ileum [5])?
The Activity was 109%.

And the Activity (Ileum [6])?
The Activity was 7%.

And the Activity (Ileum [7])?
The Activity was 11%.

And the Activity (Ileum [8])?
Its Activity is 14%.

For `C=C1Cc2ccc3[nH]c4c5c3c2[C@H]2[C@@H]1C[C@@H]2C(C)(C)O[C@H]5[C@@H]1CC[C@@]2(O)[C@@]35O[C@@H]3[C@@H](O)[C@@H](C(=C)C)O[C@H]5CC[C@]2(C)[C@@]41C` [PENITREM B], which ED50 [2] is on record?
The ED50 was 5 mg/kg.

And the Activity (Ileum [3])?
The Activity was 111%.

What about the Activity (Ileum [4]) of the same molecule?
Its Activity is 96%.

What about the Activity (Ileum [5]) of the same molecule?
The Activity was 117%.

What about the Activity (Ileum [6]) of the same molecule?
The Activity was 12%.

And the Activity (Ileum [7])?
Its Activity is 10%.

What about the Activity (Ileum [8]) of the same molecule?
The Activity was 10%.
